Measurements as given in patent US9993462B2, “Hydantoin derivative-containing pharmaceutical composition” (Chugai Seiyaku Kabushiki Kaisha, priority 2014, dated 2018).

What was measured:
human PTH1R = biological target: T1, human PTH1R (Homo sapiens, UniProt Q03431); experiment: In vitro cAMP signal activity via the human PTH1R (HKRK-B7 cells); assay type: cell-based; details: concentration at 20% cAMP signaling activity, human PTH(1-34) at 100 nM = 100%
T1 construct: expressed in transfected cells; host or cells: HKRK-B7 (LLC-PK1 porcine kidney cells stably expressing human PTH1R)
T1 sequence (Q03431 27-593): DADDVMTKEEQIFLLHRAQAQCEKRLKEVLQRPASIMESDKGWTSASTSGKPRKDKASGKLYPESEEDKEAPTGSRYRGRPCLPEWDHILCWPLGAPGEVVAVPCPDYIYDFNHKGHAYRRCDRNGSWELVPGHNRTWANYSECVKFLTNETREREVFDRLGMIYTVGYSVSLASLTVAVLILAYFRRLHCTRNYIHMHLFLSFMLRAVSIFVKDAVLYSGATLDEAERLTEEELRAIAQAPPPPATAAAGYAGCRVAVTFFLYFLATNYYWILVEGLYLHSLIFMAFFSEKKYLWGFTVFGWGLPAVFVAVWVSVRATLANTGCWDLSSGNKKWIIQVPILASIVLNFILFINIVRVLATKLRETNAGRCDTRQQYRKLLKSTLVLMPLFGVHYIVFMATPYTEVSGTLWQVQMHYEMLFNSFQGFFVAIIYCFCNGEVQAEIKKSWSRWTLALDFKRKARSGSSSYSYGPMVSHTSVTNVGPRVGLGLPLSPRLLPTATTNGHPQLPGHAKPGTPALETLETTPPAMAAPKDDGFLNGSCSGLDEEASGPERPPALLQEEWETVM
Protocol: Human PTH(1-34) and calcitonin were purchased from Peptide Institute, Inc. (Osaka, Japan), dissolved in 10 mM acetic acid to 1 mM and stored in a −80° C. freezer.
Cells were cultured in Dulbecco's modified Eagle's medium (DMEM) supplemented with 10% fetal bovine serum (Hyclone), 100 units/ml penicillin G and 100 μg/ml streptomycin sulfate (Invitrogen Corp) at 37° C. in a humidified atmosphere containing 5% CO2.
cAMP signal transduction analysis utilized LLC-PK1 cells not expressing the PTH1R, and HKRK-B7 cells, that is, LLC-PK1 cells overexpressing the human PTH1R at 9.5×10^5 receptors/cell (Takasu et al., J. Bone. Miner. Res. 14:11-20, 1999).
HKRK-B7 or LLC-PK1 cells were seeded into a 96-well plate at 1×10^5 cells/well and incubated overnight. On the following day, 50 μl of cAMP assay buffer (DMEM, 2 mM IBMX, 0.2 mg/ml bovine serum albumin, 35 mM Hepes-NaOH, pH 7.4) containing human PTH(1-34) or each compound was added and the plate was placed in a 37° C. incubator. The cells were incubated for 20 minutes. After removing the medium, the cells were washed with 100 μl of cAMP assay buffer once. The plate was placed on dry ice powder to freeze the cells and then removed from the dry ice. The cells were lysed with 40 μl of 50 mM HCl and frozen again on dry ice. The amount of intracellular cAMP produced was measured using a commercially available cAMP EIA kit (Biotrack cAMP EIA system, GE health care).
Analyses were performed using a variable gradient S-shaped dose-response curve equation.

normal rats = experiment: Bone mineral density after four weeks of repeated intravenous administration to normal rats; assay type: in vivo, rat; details: intravenous once a day for four weeks
Protocol: Female RccHan: WIST rats obtained from Japan Laboratory Animals Inc. were acclimated for one week or longer under standard laboratory conditions of 20° C. to 26° C. and 30% to 70% humidity, and then used in experiments. The rats had free access to tap water and a standard rodent diet (CR-LPF) (Oriental Yeast Co., Ltd.).
Intravenous catheter was placed into eight-week old rats. The catheter was inserted from the femoral vein in the inguinal region, and the tip was extended into the caudal vena cava for placement at that site. The body weight was determined in the first week post-surgery, and the rats were divided into groups of ten animals per group so that the average body weight of each group would be even. Two days after group division, all rats were intravenously administered once a day repeatedly for four weeks. Administration was carried out by connecting an infusion pump (MEDFUSION SYRINGE INFUSION PUMP Model 2001) to the indwelling catheter.
The solvent (vehicle) was administered intravenously to the Vehicle-Control group. To the Compound 7-20 mg/kg, −30 mg/kg, and −50 mg/kg groups, Compound 7 dissolved in the vehicle was administered intravenously at a dose of 20 mg/kg, 30 mg/kg, and 50 mg/kg, respectively. For all groups, the administration volume was 5 mL/kg and the administration speed was 5 mL/kg/minute. The composition of the vehicle used was 5% dimethyl sulfoxide (Wako Pure Chemical Industries, Ltd.), 25% propylene glycol (Kanto Chemical Co., Inc.)/20% ethanol (Junsei Chemical Co., Ltd.)/15% hydroxypropyl-β-cyclodextrin (Nihon Shokuhin Kako Co., Ltd)/300 mM glycine (Wako Pure Chemical Industries, Ltd.)/192 mM sodium hydroxide (Wako Pure Chemical Industries, Ltd.)/physiological saline solution (Otsuka Pharmaceutical Factory, Inc.). Rats were euthanized under anesthesia the day after final administration by collecting blood from the abdominal aorta, and then autopsy was performed to collect the lumbar spine, lower leg bone, and mandible. The lumbar spine, lower leg bone, and mandible were stored in 70% ethanol. The bone mineral densities of the lumbar spine (second to fourth lumbar vertebrae), lower leg bone, and mandible were determined using a dual X-ray bone mineral scanner (DCS-600EX, Aloka).
The data are shown as mean value+standard error (SE). SAS preclinical package ver. 5.00 (SAS Institute Japan) was used to perform the following statistical analyses. The significance level was set to 5% on both sides. With regard to the lumbar spine, lower leg bone, and mandible bone mineral density, parametric Dunnett multiple comparison (*P<0.05) was performed for the three dosage groups of Compound 7 with the Vehicle-Control group as control.

Cc1cc(N2C(=O)NC(=O)C2(C)C)cc(C)c1CCS(=O)(=O)N1CCC2(CC1)N=C(c1ccc(OC(F)(F)F)cc1)NC2=O [Compound 7, 1-(3,5-dimethyl-4-(2-((4-oxo-2-(4-(trifluoromethoxy)phenyl)-1,3,8-triazaspiro[4.5]deca-1-en-8-yl)sulfonyl)ethyl)phenyl)-5,5-dimethylimidazolidine-2,4-dione]
EC20 (human PTH1R): 1.1 µM | percentage of increase in the lumbar spine bone mineral density with respect to the Vehicle-Control group (normal rats; 20 mg/kg): 16% | percentage of increase of bone mineral density in the lower leg bone with respect to the Vehicle-Control group (normal rats; 20 mg/kg): 7% | percentage of increase in the lumbar spine bone mineral density with respect to the Vehicle-Control group (normal rats; 30 mg/kg): 21% | percentage of increase of bone mineral density in the lower leg bone with respect to the Vehicle-Control group (normal rats; 30 mg/kg): 16% | percentage of increase of mandible bone mineral density relative to the Vehicle-Control group (normal rats; 30 mg/kg): 7% | percentage of increase in the lumbar spine bone mineral density with respect to the Vehicle-Control group (normal rats; 50 mg/kg): 25% | percentage of increase of bone mineral density in the lower leg bone with respect to the Vehicle-Control group (normal rats; 50 mg/kg): 19%
